Assay results: patent US20040186166A1, “Cannabinoid analogs as peroxisome proliferator activated nuclear receptor gamma activators” (priority 2002, published 2004)
pEC50: −log10 of the molar value. Where “and” joins values, the source holds several entries; their conditions need not be identical. Equal values may be shown once.

Experiments:
[1] = molecular target: T1, Gal4-DBD/mPPARγ (Mus musculus, UniProt P37238); test: Gal4-dependent MH100-Luc reporter, Gal4-DBD/mPPARγ; assay type: cell-based; details: HEK293 cells
T1 construct: expressed in transfected cells; host or cells: HEK293
T1 sequence (P37238 1-475 isoform P37238-2): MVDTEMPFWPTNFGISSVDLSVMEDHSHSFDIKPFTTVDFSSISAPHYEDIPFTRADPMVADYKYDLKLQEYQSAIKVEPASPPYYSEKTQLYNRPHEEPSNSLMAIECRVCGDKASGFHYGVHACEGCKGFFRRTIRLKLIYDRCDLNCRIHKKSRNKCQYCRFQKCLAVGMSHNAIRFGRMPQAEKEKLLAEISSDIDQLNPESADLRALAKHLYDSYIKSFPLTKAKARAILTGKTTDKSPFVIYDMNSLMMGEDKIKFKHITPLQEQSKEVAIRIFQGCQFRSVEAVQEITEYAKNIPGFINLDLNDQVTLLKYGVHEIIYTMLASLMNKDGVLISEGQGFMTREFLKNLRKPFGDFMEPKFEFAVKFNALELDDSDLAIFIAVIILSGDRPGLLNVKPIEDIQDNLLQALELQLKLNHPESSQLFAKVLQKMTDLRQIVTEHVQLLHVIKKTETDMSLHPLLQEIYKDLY
From the text: The-pCMX-Gal4-mPPARγ1 was constructed by fusing the mPPARγ1 coding sequence to the yeast GAL4 DNA binding domain (amino acid 1-147) in the pCMX vector. The AF-2 helix-truncated mutant of mPPARγ1 (PPARγ ΔAF2) was generated by PCR amplification-to introduce a stop codon and a NheI restriction site after amino acid 489, and then-subcloned into the pCMX vector. The PPRE-TK-LUC, MH100-TK-LUC-and DR1-TK-LUC reporters have been described previously (Forman et al., Cell 83:803-812, 1995; Umesono et al., Cell 65:1255-1266, 1991).
For PPARγ activation assay, HEK293 cells were plated in 12-well cell culture plates and maintained in Dulbecco's modified Eagle's medium (DMEM) supplemented with 10% fetal bovine serum (FBS) at 37° C. under 5% CO2. […] The average normalized luciferase activity was determined via triplicate experiments. […]
To further confirm activation of PPARγ by AJA, and also to determine PPARγ species specificity, the ability of AJA to activate the chimeric Gal4-DBD/PPAR fusion proteins on a Gal4-dependent MH100-Luc reporter was assessed (FIG. 4A). The PPARs were expressed as Gal4 DBD fusion proteins, which bind to the UAS promoter containing 4 copies of a synthetic Gal4 binding site upstream of the minimal thymidine kinase (TK) promoter. […]

[2] = molecular target: T2, PPARδ (Mus musculus, UniProt P35396); test: Partial protease (trypsin) digestion assay, PPARδ; assay type: binding; details: 2, 20 and 100 μM AJA
T2 construct: expressed in transfected cells; host or cells: HEK293 / HEK293T
T2 sequence (P35396 1-440): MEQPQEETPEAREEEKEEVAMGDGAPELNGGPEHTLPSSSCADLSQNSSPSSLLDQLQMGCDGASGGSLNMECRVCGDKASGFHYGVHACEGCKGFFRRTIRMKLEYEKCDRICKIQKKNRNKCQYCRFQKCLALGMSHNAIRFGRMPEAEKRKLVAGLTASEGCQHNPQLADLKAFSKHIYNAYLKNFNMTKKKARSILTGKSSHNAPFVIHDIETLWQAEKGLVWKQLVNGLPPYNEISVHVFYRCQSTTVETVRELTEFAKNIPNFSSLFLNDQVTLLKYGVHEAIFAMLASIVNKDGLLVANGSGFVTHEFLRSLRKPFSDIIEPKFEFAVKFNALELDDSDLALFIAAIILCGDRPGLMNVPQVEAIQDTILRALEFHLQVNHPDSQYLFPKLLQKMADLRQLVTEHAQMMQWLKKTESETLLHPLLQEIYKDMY
Protocol: Partial protease digestion was carried out as described by Leng et. al. (J Steroid Biochem Mol Biol 46:643-61, 1993). PPAR proteins were made by in vitro transcription/translation reactions in reticulocyte lysate according to the manufacture's instructions (Promega). AJA, GW347845, or vehicle alone was incubated with the 35S-labeled PPARs at room temperature for one hour before trypsin digestion. Reactions were stopped by boiling in SDS-containing sample buffer, and lysates were subjected to SDS-PAGE and autoradiography.
The PPAR proteins were synthesized and labeled with ^35S-methionine in reticulocyte lysate and incubated with AJA, GW347845, or vehicle alone at room temperature for one hour before trypsin digestion. The reactions were terminated by boiling in SDS-containing protein sample buffer. The proteolytic patterns of PPAR proteins were then analyzed by SDS-PAGE and autoradiography, and compared with vehicle-treated control samples.
The AJA concentrations required to protect PPARγ from trypsin digestion were further measured.

## CCCCCCC(C)(C)c1cc(O)c2c(c1)OC(C)(C)[C@@H]1CC=C(C(=O)O)C[C@@H]21 [AJA, dimethylheptyl-THC-11-oic acid]
[1]; 20 μM AJA
  activation of Gal4-DBD/mPPARγ reporter gene expression: activated the reporter gene expression significantly
[1]; EC-50 for activation of PPARγ, estimated, 10-60 μM AJA, luciferase activity
  pEC50: ~4.89 and 4.89
[2]
  proteinase sensitivity of PPARδ: did not affect the proteinase sensitivity
